pEC50, pIC50: −log10 of the molar value.

Data set [1] relates to HRV IL-8 release (BEAS2B). The data set can be described thus: Rhinovirus-induced IL-8 release in BEAS2B cells. It is filed as cell-based, human. The note with it: at 0.04 μg/mL. As to the method: Human rhinovirus RV16 was obtained from the American Type Culture Collection (Manassas, Va.). Viral stocks were generated by infecting Hela cells with HRV until 80% of the cells were cytopathic.
BEAS2B cells were infected with HRV at an MOI of 5 and incubated for 2 hr at 33° C. with gentle shaking for to promote absorption. The cells were then washed with PBS, fresh media added and the cells were incubated for a further 72 hr. The supernatant was collected for assay of IL-8 concentrations using a Duoset ELISA development kit (R&D systems, Minneapolis, Minn.).
The level of cell surface ICAM-1 expression was determined by cell-based ELISA. At 72 hr after infection, cells were fixed with 4% formaldehyde in PBS. After quenching endogenous peroxidase by adding 0.1% sodium azide and 1% hydrogen peroxide, wells were washed with wash-buffer (0.05% Tween in PBS: PBS-Tween). […] The ICAM-1 signal was detected by adding substrate and reading at 450 nm with a reference wavelength of 655 nm using a spectrophotometer. The wells were then washed with PBS-Tween and total cell numbers in each well were determined by reading absorbance at 595 nm after Crystal Violet staining and elution by 1% SDS solution. The measured OD450-655 readings were corrected for cell number by dividing with the OD595 reading in each well. […]

Data set [2] relates to TNFα release in d-U937 cells. The data set can be described thus: LPS-induced TNFα release in d-U937 cells. It is filed as cell-based, human. The note with it: dU937 cells; relative to 10 μg/mL BIRB796; read-out: LPS Induced Release TNFα REC50 (dU937). Here is the method: U937 cells, a human monocytic cell line, were differentiated into macrophage-type cells by incubation with PMA (100 ng/mL) for 48 to 72 hr. Cells were pre-incubated with final concentrations of test compound for 2 hr and were then stimulated with LPS (0.1 μg/mL; from E. Coli: 0111:B4, Sigma) for 4 hr. The supernatant was collected for determination of TNFα and IL-8 concentrations by sandwich ELISA (Duo-set, R&D systems). […] The relative 50% effective concentration (REC50) was determined from the resultant concentration-response curve. The inhibition of IL-8 production was calculated at each concentration of test compound by comparison with vehicle control.

A further data set deals with HRV16. The data set can be described thus: HRV16 induced CPE in MRC5 cells. It is filed as cell-based, human rhinovirus. The note with it: at 0.04 μg/mL. As to the method: The supernatants were aspirated, and then fresh media added followed by incubation for 4 days. Where appropriate, cells were pre-incubated with compound or DMSO for 2 hr, and the compounds and DMSO added again after washout of the virus.
The percentage inhibition for each well was calculated. The IC50 value was calculated from the concentration-response curve generated by the serial dilutions of the test compounds.

The test system of the next data set is d-U937 cells. In words: Cell viability: MTT assay. The data set is classed as cell-based, human. As to conditions: 1 μg/mL. In outline:
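Differentiated U937 cells exposed to compound at 1 or 10 μg/mL final, either 4 h in 5% FCS RPMI1640 or 24 h in 10% FCS RPMI1640. After medium replacement, MTT added 1 h, formazan dissolved in DMSO, A550 read. % viability loss vs 0.5% DMSO vehicle; apparent viability gain shown as negative %.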
In general terms: Tetrazolium assays rely on reduction of a dye to a coloured formazan, in cell work by metabolically active cells.

The test system of data set [3] is ICAM-1 expression in BEAS2B cells. In words: Poly I:C-induced ICAM-1 expression in BEAS2B cells. It is filed as cell-based, human. As to conditions: read-out: PolyIC/ICAM1 IC50 (BEAS2B). The method in brief:
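BEAS2B human bronchial epithelial cells pre-incubated 2 h with compound, then transfected with 1 μg/mL poly I:C plus Oligofectamine. After 18 h, surface ICAM-1 measured by cell-based ELISA (OD450–655), normalised to crystal violet cell count (OD595). Inhibition calculated against vehicle control.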

The subject of data set [4] is IL-8 release in d-U937 cells. In words: LPS-induced IL-8 release in d-U937 cells. The data set is classed as cell-based, human. As to conditions: dU937 cells. Here is the method:
U937 cells, a human monocytic cell line, were differentiated into macrophage-type cells by incubation with PMA (100 ng/mL) for 48 to 72 hr. […] The supernatant was collected for determination of TNFα and IL-8 concentrations by sandwich ELISA (Duo-set, R&D systems). […] The relative 50% effective concentration (REC50) was determined from the resultant concentration-response curve. The inhibition of IL-8 production was calculated at each concentration of test compound by comparison with vehicle control.

Data set [5] has as its system TNFα release in THP-1 cells. In words: LPS-induced TNFα release in THP-1 cells. The note with it: THP1 cells. The data set is classed as cell-based, human. Here is the method: THP-1 cells, a human monocytic cell line, were stimulated with 3 μg/mL of LPS (from E. Coli; 0111:B4, Sigma) for 4 hr and the supernatant collected for determination of the TNFα concentration by sandwich ELISA (Duo-set, R&D systems). The inhibition of TNFα production was calculated at each concentration by comparison with vehicle control.

Turning to `Cc1ccc(-n2nc(C(C)(C)C)cc2NC(=O)Nc2ccc(Oc3ccnc(Nc4ccccc4Cl)n3)c3ccccc23)cc1` [Example 19, 1-(3-(tert-butyl)-1-(p-tolyl)-1H-pyrazol-5-yl)-3-(4-((2-((2-chlorophenyl)amino)pyrimidin-4-yl)oxy)naphthalen-1-yl)urea], in data set [1], the “HRV IL-8 (BEAS2B) % inhibition” value turned out to be 100%. The pEC50 in data set [2] is 7.89. In addition, in the data set with HRV16, the “HRV CPE (MRC5) % inhibition” value is “NE (NE: no effect, ≦0% at 0.04 μg/mL)”. Moreover, the “MTT Assay Cell viability at time point in d-U937 Cells” value in the data set on d-U937 cells (4 h) is “−ve (−ve and +ve indicate the value is below and above respectively, the no significant effect threshold defined as 30% inhibition at 1 μg/mL at the time point indicated)”; with d-U937 cells (24 h), “−ve (−ve and +ve indicate the value is below and above respectively, the no significant effect threshold defined as 30% inhibition at 1 μg/mL at the time point indicated)”. For the same molecule, the pIC50 in data set [3] was 7.37; in data set [4] it was 7.85; in data set [5] it was 6.72.

The record behind these values is patent US9724347B2, “1-pyrazolyl-3-(4-((2-anilinopyrimidin-4-yl)oxy)napththalen-1-yl) ureas as P38 MAP knase inhibitors” (Respivert Ltd., priority 2011, dated 2017).
